The values below come from patent US8835476B2, “Synthesis of novel antimicrobials” (priority 2005, dated 2014).

Where only a bound is given, the exact number is not on record here.

Series [1] concerns S. liquifaciens clinical isolates. In words: Broth microdilution MIC, clinical isolate strains (NAUTICA). Type of series: cell-based. As to conditions: Table 4B; each table row is one clinical isolate; unit assumed. The essentials: (§1)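 NCCLS M7-A6 broth microdilution, inoculum 5×10^5 CFU/ml, with DMSO controls; read after 16 to 20 hours at 35° C in ambient air. MIC is lowest concentration inhibiting visible growth; clinical strains were outpatient urinary isolates from NAUTICA, alongside ATCC reference strains.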

In series [2] the test system is P. mirabilis clinical isolates. The description is as above. As to conditions: Table 4B; each table row is one clinical isolate; unit assumed. The class given is cell-based. The essentials: as §1
In series [3] the test system is S. maltophilia clinical isolates. The description is as above. Type of series: cell-based. As to conditions: Table 4B; each table row is one clinical isolate; unit assumed. Summed up: as §1
For series [4], the system named is P. stuartii clinical isolates. The description is as above. The class given is cell-based. As to conditions: Table 4B; each table row is one clinical isolate; unit assumed. The essentials: as §1
The subject of series [5] is Ps. aeruginosa clinical isolates. Described as above. Type of series: cell-based. The note with it: Table 4B; each table row is one clinical isolate; unit assumed. The essentials: as §1
Series [6] deals with M. morganii clinical isolates. The description is as above. Type of series: cell-based. The note with it: Table 4B; each table row is one clinical isolate; unit assumed. The essentials:
as §1

Series [7] relates to P. retgerri clinical isolates. Described as above. The class given is cell-based. The note with it: Table 4B; each table row is one clinical isolate; unit assumed. Summed up: as §1
Series [8] relates to K. pneumoniae clinical isolates. The description is as above. The class given is cell-based. The note with it: Table 4B; each table row is one clinical isolate; unit assumed. Summed up:
as §1

The test system of series [9] is C. amalonaticus clinical isolates. The description is as above. Type of series: cell-based. The note with it: Table 4B; each table row is one clinical isolate; unit assumed. Summed up:
as §1

The subject of series [10] is C. freundii clinical isolates. The series is described as above. The class given is cell-based. As to conditions: Table 4B; each table row is one clinical isolate; in µg/mL (unit assumed). Summed up:
as §1

Series [11] has as its system E. aerogenes clinical isolates. The series is described as above. Type of series: cell-based. As to conditions: Table 4B; each table row is one clinical isolate; unit assumed. The essentials:
as §1

Series [12] relates to A. baumanii clinical isolates. Described as above. The note with it: Table 4B; each table row is one clinical isolate; unit assumed. The class given is cell-based. Summed up: as §1
In series [13] the test system is B. cepacia clinical isolates. Described as above. The note with it: Table 4B; each table row is one clinical isolate; unit assumed. Type of series: cell-based. Summed up: as §1
In series [14] the test system is E. cloacae clinical isolates. The series is described as above. Type of series: cell-based. The note with it: Table 4B; each table row is one clinical isolate; unit assumed. The essentials:
as §1

Series [15] deals with S. marcescens clinical isolates. Described as above. Type of series: cell-based. The note with it: Table 4B; each table row is one clinical isolate; unit assumed. The essentials:
as §1

The subject of series [16] is K. oxytoca clinical isolates. Described as above. Type of series: cell-based. As to conditions: Table 4B; each table row is one clinical isolate; unit assumed. The essentials: as §1
Series [17] has as its system P. vulgaris clinical isolates. The series is described as above. The class given is cell-based. As to conditions: Table 4B; each table row is one clinical isolate; unit assumed. Summed up: as §1
Series [18] deals with E. coli clinical isolates. The series is described as above. The class given is cell-based. As to conditions: Table 4B; each table row is one clinical isolate; unit assumed. Summed up:
as §1

Series [19] deals with C. koseril clinical isolates. The description is as above. Type of series: cell-based. The note with it: Table 4B; each table row is one clinical isolate; unit assumed. The essentials: as §1
In series [20] the test system is P. rettgeri CAP. Kind of series: Broth microdilution MIC, reference strains. Type of series: cell-based. As to conditions: Providencia rettgeri; P. rettgeri (CAP in Table 1); read-out: MIC (growth inhibition, microdilution method). The essentials: as §1
In general terms: In broth dilution the organism is exposed to a series of concentrations in liquid medium.

As for `Cn1nnc(-c2cc(-c3ccc(F)cc3)sc2-c2ccc(F)cc2)n1` [DNM-132, 5-(2,5-bis(4-fluorophenyl)thiophen-3-yl)-2-methyl-2H-tetrazole], the melting point (as a rule, the temperature of the solid-liquid transition) is 150 to 152 °C. In series [1], the MIC, S. LIQUEFACIENS is above 16 µg/mL. The MIC, P. MIRABILIS in [2] was above 16 µg/mL. Also, the MIC, S. MALTOPHILIA in [3] was above 16 µg/mL. In [4], this compound yielded an MIC, P. STUARTII above 16 µg/mL. Also, the MIC, PS. AER in [5] was above 16 µg/mL. This compound showed an MIC, M. MORGANII in [6] above 16 µg/mL. In series [7], the MIC, P. RETTGERI was above 16 µg/mL. For the same compound, the MIC, K. PNEUMONIAE in [8] is above 16 µg/mL. The MIC, C. AMALONATICUS in series [9] is above 16 µg/mL. Further, in [10], the “MIC, C. FREUNDII” value was above 16. Besides, the MIC, E. AEROGENES in series [11] is above 16 µg/mL. This compound also yielded an MIC, A. BAUMANII in series [12] above 16 µg/mL. In addition, in series [13], the MIC, B. CEPACIA is above 16 µg/mL. The compound also registered an MIC, E. CLOACAE in series [14] above 16 µg/mL. Also, the MIC, S. MARCESCENS in series [15] was above 16 µg/mL. This compound also displayed an MIC, K. OXYTOCA in [16] above 16 µg/mL. Besides, the MIC, P. VULGARIS in series [17] is above 16 µg/mL. In series [18], this compound showed an MIC, E. COLI above 16 µg/mL. In series [19], this compound showed an MIC, C. KOSERI above 16 µg/mL. For the same compound, in series [20], the MIC (commonly the smallest concentration in the dilution series that meets the test's criterion for growth inhibition) was above 16 µg/mL.
